From paper PMC10051454, “Synthesis of Schiff Bases Containing Phenol Rings and Investigation of Their Antioxidant Capacity, Anticholinesterase, Butyrylcholinesterase, and Carbonic Anhydrase Inhibition Properties” (Pharmaceutics, 2023)
Several values for one entry are separate records, joined by “and”; a condition that tells them apart may be missing. Identical values can stand only once. Like-named read-outs stand apart in the source and are kept apart here.

What was measured:
[1] = Fe3+ reducing ability (ferricyanide method, absorbance 700 nm); settings: 30 µg/mL; absorbance at 700 nm
Protocol: The Fe^3+ reducing ability of Schiff bases (10–15) and hydrazineylidene derivatives (16 and 17) were tested according to our prior studies. For this purpose, various concentrations of compounds (10–17) were transferred into test tubes, and 2.5 mL of phosphate buffer (0.2 M, pH 6.6) and 2.5 mL (1%) of potassium ferricyanide [K3Fe(CN)6] solutions were added. Then, the mixture was vortexed and incubated at 50 °C for 20 min. A portion of trichloroacetic acid (2.5 mL, 10%) was added. Then, 2.5 mL of upper layers of the solutions were mixed with 2.5 mL distilled water and 0.5 mL FeCl3 (0.1%). The absorbance values of the reducing effects of compounds (10–17) and standards were spectrophotometrically recorded at 700 nm.

[2] = Fe3+-TPTZ complex reducing ability (absorbance 593 nm); settings: 30 µg/mL; absorbance at 593 nm
Protocol: The Fe^3+-TPTZ complex reducing ability of Schiff bases (10–15) and hydrazineylidene derivatives (16 and 17) was realized according to a previous study. For this, 2.25 mL of TPTZ solution (10 mM in 40 mM HCl) was freshly prepared, then added to 2.5 mL of acetate buffer (0.3 M, pH 3.6) and 2.25 mL of FeCl3 solution (20 mM). Then, different concentrations of Schiff bases (10–15) and hydrazineylidene derivatives (16 and 17) were transferred and incubated at 37 °C for 30 min. Finally, the absorbance values of the reducing power of Schiff bases (10–15) and hydrazineylidene derivatives (16 and 17) and standards were spectrophotometrically measured at 593 nm.

[3] = ABTS radical cation scavenging
Protocol: The ABTS radical cation scavenging assay was used as a way to calculate antioxidant capacity based on this radical scavenging ability. Firstly, an aqueous solution of ABTS (7.0 mM) was oxidized by oxidants such as K2S2O8 (2.5 mM) for the production of its radical cation (ABTS^•+). […] Then, 1 mL of ABTS^•+ solution was added to 3 mL Schiff base (10–15) and hydrazineylidene derivative (16 and 17) solutions at different concentrations (10–30 μg/mL).

[4] = Cu2+ reducing ability (neocuproine method, absorbance 450 nm); settings: 30 µg/mL; absorbance at 450 nm
Protocol: The Cu^2+ reducing ability of Schiff bases (10–15) and hydrazineylidene derivatives (16 and 17) were detected according to a prior study. For this purpose, 0.25 mL of CuCl2 solution (10 mM), 0.25 mL of ethanolic neocuproine solution (7.5 × 10^−3 M), and 250 μL of NH4Ac buffer solution (1.0 M) in different concentrations (10–30 μg/mL) were transferred to test tubes containing Schiff base (10–15) and hydrazineylidene derivative (16 and 17) samples. The total volume was made up to 2 mL with distilled water, and their absorbance values were recorded at 450 nm after 30 min of incubation.

[5] = DPPH radical scavenging (Blois method); settings: half maximal scavenging concentration
Protocol: DPPH· and ABTS^•+ scavenging methods are the most widely used spectrophotometric methods to determine the antioxidant capacity of newly synthesized compounds. The DPPH‧ scavenging effect of Schiff bases (10–15) and hydrazineylidene derivatives (16 and 17) was realized according to the Blois method. Briefly, 1 mL of DPPH^• solution (0.1 mM), which was prepared in ethanol and was a violet/purple color […], was added to the Schiff base (10–15) and hydrazineylidene derivative (16 and 17) samples at different concentrations (10–30 μg/mL). Then, they were incubated at room temperature for 30 min and their absorbance values were recorded at 517 nm.

hCA I [6] = biological target: T1, hCA I (Homo sapiens, UniProt P00915); assay: biochemical
T1 sequence (P00915 whole entry): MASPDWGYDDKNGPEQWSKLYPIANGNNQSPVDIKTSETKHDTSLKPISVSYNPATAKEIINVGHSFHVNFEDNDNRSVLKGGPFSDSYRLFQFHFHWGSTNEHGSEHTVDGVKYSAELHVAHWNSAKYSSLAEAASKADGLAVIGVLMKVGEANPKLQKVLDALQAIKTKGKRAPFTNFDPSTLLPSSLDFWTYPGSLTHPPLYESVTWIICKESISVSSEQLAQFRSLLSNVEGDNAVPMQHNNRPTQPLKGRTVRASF
From the text: (§2) Both isoforms’ activity was spectrophotometrically determined according to the Verpoorte assay [47]. […] All experiments of the CA inhibition assay were repeated three times and the results are given as the arithmetic mean of these repetitions.

AChE = AChE (Homo sapiens, UniProt P22303); assay: biochemical
AChE, sequence (P22303 32-614): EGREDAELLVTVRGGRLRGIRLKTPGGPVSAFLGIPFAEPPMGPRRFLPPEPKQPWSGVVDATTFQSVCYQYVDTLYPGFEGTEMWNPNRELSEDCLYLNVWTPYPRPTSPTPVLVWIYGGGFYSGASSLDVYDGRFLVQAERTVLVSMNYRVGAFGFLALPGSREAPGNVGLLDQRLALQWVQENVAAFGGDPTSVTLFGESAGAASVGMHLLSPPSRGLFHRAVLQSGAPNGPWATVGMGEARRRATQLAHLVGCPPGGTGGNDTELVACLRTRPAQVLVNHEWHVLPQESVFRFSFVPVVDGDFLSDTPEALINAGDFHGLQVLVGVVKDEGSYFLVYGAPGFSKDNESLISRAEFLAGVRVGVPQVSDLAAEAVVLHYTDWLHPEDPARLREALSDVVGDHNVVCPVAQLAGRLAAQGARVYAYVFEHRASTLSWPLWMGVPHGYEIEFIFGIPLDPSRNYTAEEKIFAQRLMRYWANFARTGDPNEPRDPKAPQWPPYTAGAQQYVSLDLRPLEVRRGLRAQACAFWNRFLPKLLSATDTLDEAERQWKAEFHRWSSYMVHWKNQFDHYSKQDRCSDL
Protocol: (§1) Acetylthiocholine iodide/butyrylthiocholine iodide (AChI)/BChI) and 5,5′-dithiobis(2-nitro-benzoic acid) (DTNB) were used as the substrate pattern for both cholinergic reactions. […] Then, the samples were incubated at 25 °C for 15 min, and 50 μL of DTNB solution (0.5 mM,) was transferred.

BChE = BChE (Homo sapiens, UniProt P06276); assay: biochemical
BChE, sequence (P06276 29-602): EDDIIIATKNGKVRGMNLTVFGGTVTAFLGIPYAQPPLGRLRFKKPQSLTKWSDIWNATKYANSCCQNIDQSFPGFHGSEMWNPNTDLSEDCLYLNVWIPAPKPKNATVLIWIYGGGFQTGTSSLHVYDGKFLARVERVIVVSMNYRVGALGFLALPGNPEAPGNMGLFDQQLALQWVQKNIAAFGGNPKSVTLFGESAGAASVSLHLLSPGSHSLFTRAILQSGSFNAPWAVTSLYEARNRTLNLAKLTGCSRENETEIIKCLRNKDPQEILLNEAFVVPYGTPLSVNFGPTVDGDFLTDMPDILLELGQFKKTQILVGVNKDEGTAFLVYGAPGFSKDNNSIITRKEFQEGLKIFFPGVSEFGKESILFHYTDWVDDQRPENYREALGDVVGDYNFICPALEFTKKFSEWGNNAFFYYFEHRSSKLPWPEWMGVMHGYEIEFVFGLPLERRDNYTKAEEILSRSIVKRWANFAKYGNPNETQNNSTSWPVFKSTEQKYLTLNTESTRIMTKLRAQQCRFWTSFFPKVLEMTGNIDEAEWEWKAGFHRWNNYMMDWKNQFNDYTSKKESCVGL
Protocol: as §1

hCA II = hCA II (Homo sapiens, UniProt P00918); assay: hCA II inhibition, esterase assay (Verpoorte); type: biochemical
From the text: as §2

hCA I [7] = biological target: T1, hCA I
From the text: as §2

| Structure (SMILES) | Fe^3+ Reducing λ700 [1] [absorbance] | Fe^3+-TPTZ Reducing λ593 [2] [absorbance] | ABTS^•+ Scavenging IC50 [3] | Cu^2+ Reducing λ450 [4] [absorbance] | DPPH^• Scavenging IC50 [5] | IC50 (hCA I [6]) [nM] | Ki (hCA I [6]) [nM] | IC50 (AChE) [nM] | Selectivity Index (AChE/BChE) (AChE) | IC50 (BChE) [nM] | IC50 (hCA II) [nM] | IC50 (AChE; read-out: IC50 AChE) [nM] | IC50 (BChE; read-out: IC50 BChE) [nM] | IC50 (hCA II; read-out: IC50 hCA II) [nM] | Selectivity Index (hCA I/hCA II) (hCA I [7]) | Ki (hCA II) [nM] |
| --- | --- | --- | --- | --- | --- | --- | --- | --- | --- | --- | --- | --- | --- | --- | --- | --- |
| COc1ccc(O)c(C(C)(C)C)c1 [BHA, butylated hydroxyanisole, reference compound] | 2.448 ± 0.021 | 2.156 ± 0.005 | 4.47 µg/mL | 2.268 ± 0.011 | 11.55 µg/mL |  |  |  |  |  |  |  |  |  |  |  |
| Cc1cc(C(C)(C)C)c(O)c(C(C)(C)C)c1 [BHT, butylated hydroxytoluene, reference compound] | 1.994 ± 0.033 | 2.037 ± 0.027 | 4.95 µg/mL | 2.149 ± 0.019 | 13.326 µg/mL and 13.32 µg/mL |  |  |  |  |  |  |  |  |  |  |  |
| COc1ccc(C=O)cc1O [Compound 1, Isovanillin] | 0.244 ± 0.005 | 0.728 ± 0.020 | 12.15 µg/mL | 1.005 ± 0.009 | 86.62 µg/mL | 139 | 112 ± 25.8 | 57.8 | 1.083 | 53.3 | 173 |  |  |  |  |  |
| NN=C(c1ccccc1)c1ccccc1 [Compound 8, benzophenone hydrazone] |  |  |  | 1.005 ± 0.009 |  |  |  |  |  |  |  |  |  |  |  |  |
| COc1ccc(/C=N/c2ccc(N(C)C)cc2)cc1O [Compound 10, (E)-5-(((4-(Dimethylamino)phenyl)imino)methyl)-2-methoxyphenol] | 2.827 ± 0.016 | 2.076 ± 0.004 | 14.437 µg/mL and 14.43 µg/mL | 2.176 ± 0.044 | 16.902 µg/mL and 16.90 µg/mL | 66 |  |  | 1.115 |  |  | 26.7 | 23.9 | 131 | 0.372 |  |
| COc1ccc(/C=N/c2ccccc2O)cc1O [Compound 11, (E)-5-(((2-Hydroxyphenyl)imino)methyl)-2-methoxyphenol] | 2.591 ± 0.010 | 2.183 ± 0.016 | 4.386 µg/mL and 4.38 µg/mL | 2.332 ± 0.018 | 12.157 µg/mL and 12.15 µg/mL | 86.6 |  |  | 0.645 |  |  | 22.4 | 34.6 | 88.2 | 0.730 |  |
| COc1ccc(/C=N/c2ccc(F)cc2)cc1O [Compound 12, (E)-5-(((4-Fluorophenyl)imino)methyl)-2-methoxyphenol] | 0.294 ± 0.008 | 0.806 ± 0.003 | 27.72 µg/mL | 0.951 ± 0.010 | 57.75 µg/mL | 61.9 |  |  | 0.700 |  |  | 23.1 | 33 | 99 | 0.424 |  |
| COc1ccc(/C=N/c2ccc(Br)cc2)cc1O [Compound 13, (E)-5-(((4-Bromophenyl)imino)methyl)-2-methoxyphenol] | 0.198 ± 0.004 | 0.701 ± 0.003 | 34.65 µg/mL | 0.875 ± 0.020 | 87.721 µg/mL and 87.72 µg/mL | 63 |  |  | 0.615 |  |  | 17.8 | 28.9 | 77 | 0.483 | 67.6 ± 15.7 |
| COc1ccc(/C=N/c2ccc(N)cc2)cc1O [Compound 14, (E/Z)-5-(((4-Aminophenyl)imino)methyl)-2-methoxyphenol] | 2.741 ± 0.026 | 2.074 ± 0.017 | 5.33 µg/mL | 1.970 ± 0.018 | 13.86 µg/mL | 53.3 | 26.1 ± 8.53 |  | 0.900 |  |  | 34.6 | 38.5 | 69.3 | 0.306 |  |
| COc1ccc(/C=N/Cc2ccccc2)cc1O [Compound 15, (E)-5-((Benzylimino)methyl)-2-methoxyphenol] | 0.363 ± 0.021 | 0.646 ± 0.034 | 23.896 µg/mL and 23.89 µg/mL | 0.803 ± 0.013 | 99.01 µg/mL | 99 |  |  | 0.704 |  |  | 25.7 | 36.5 | 139 | 0.521 |  |
| Cc1c(C)c2c(c(C)c1O)CCC(C)(C(=O)O)O2 (stereo not shown) [Trolox, trolox, reference compound] | 1.570 ± 0.016 | 2.051 ± 0.028 | 4.846 µg/mL and 4.84 µg/mL | 1.174 ± 0.027 | 12.157 µg/mL and 12.15 µg/mL |  |  |  |  |  |  |  |  |  |  |  |
| Cc1c(C)c2c(c(C)c1O)CC[C@@](C)(CCC[C@H](C)CCC[C@H](C)CCCC(C)C)O2 [α-Tocopherol, α-tocopherol, reference compound] | 1.446 ± 0.009 | 1.763 ± 0.026 | 9.493 µg/mL and 9.49 µg/mL | 1.923 ± 0.032 | 10.043 µg/mL and 10.04 µg/mL |  |  |  |  |  |  |  |  |  |  |  |
